Test results: PubChem BioAssay AID720632 (Broad Institute, 2013)
Active and inactive are the calls of the source. No rule for the calls is given here.

Biological target: Caspase-6 (Homo sapiens) (UniProt P55212)
Experiment: human caspase-6 inhibitors, dose response, biochemical, VEID-R110 fluorescence, cherry-pick (AID 720632)
Conditions: caspase-6, VEID-R110 fluorogenic substrate

Caspase-6 (Homo sapiens), sequence (P55212 24-179 limits assumed): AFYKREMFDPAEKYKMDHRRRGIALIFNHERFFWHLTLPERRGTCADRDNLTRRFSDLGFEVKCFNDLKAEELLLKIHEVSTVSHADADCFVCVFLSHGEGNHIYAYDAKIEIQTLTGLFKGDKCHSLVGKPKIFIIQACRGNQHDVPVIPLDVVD
Caspase-6 (Homo sapiens), sequence (P55212 194-293 limits assumed): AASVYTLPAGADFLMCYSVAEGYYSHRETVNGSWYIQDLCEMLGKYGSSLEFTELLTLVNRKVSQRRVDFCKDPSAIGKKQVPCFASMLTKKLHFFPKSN

| SMILES | activity change, negative = inhibition (at 26 µM (top of the series)) | other results |
| --- | --- | --- |
| C[C@@H]1CN([C@H](C)CO)C(=O)c2cc(Br)cnc2O[C@H]1CN(C)CC1CCCC1 | inactive |  |
| Cn1cc(C(CC(=O)O)C(=O)O)c2ccccc21 (configuration not stated) | inactive |  |
| CCNC(=S)N1CCCCC1CO (configuration not stated) | inactive |  |
| COCCNc1nc(-c2ccc(OC)cc2)c(-c2ccc(OC)cc2)s1 | inactive |  |
| C=C1[C@H](C)CN[C@H]1CCO | inactive |  |
| CN1CCN(NC(=O)NC2CCCCC2)CC1 | inactive |  |
| CCc1ccccc1OCC(=O)OCC(=O)N1CC(=O)Nc2ccccc21 | inactive |  |
| Cc1noc(C)c1COc1ccccc1C(=O)N(C)CC(=O)Nc1ccc(F)c(F)c1F | inactive |  |
| COc1ccc(S(=O)(=O)N2CCOC23CCN(S(=O)(=O)c2ccc(C)cc2)CC3)cc1 | inactive |  |
| CN1CCN(NC(=O)Nc2ccc(F)cc2)CC1 | inactive |  |
| CCC(=O)Nc1ccc2c(c1)OC[C@H](C)N(C(=O)C1CC1)C[C@H](C)[C@@H](OC)CN(C)C2=O | inactive |  |
| CN1N=C(C(C)(C)C)CSC1=Nc1ccccc1 | inactive |  |
| CC(=O)N1c2ccc(S(=O)(=O)N(C)CC(=O)NCc3ccc(C)cc3)cc2CC1C (configuration not stated) | inactive |  |
| O=C1NC(=O)C(Sc2ccccc2[N+](=O)[O-])C(=O)N1 | inactive |  |
| O=C(Nc1cc(Cl)cc(Cl)c1)c1coc(=O)c(Br)c1 | inactive |  |
| CCOc1ccc(N(CC(=O)Nc2cc(Cl)ccc2C)S(C)(=O)=O)cc1 | inactive |  |
| O=C(NC1CCCCC1)N[C@H]1C=C[C@@H](CC(=O)N2CCOCC2)O[C@@H]1CO | inactive |  |
| CCN(CC)C(=O)COc1ccc(/C(C)=N/NC(=O)c2ccccc2O)cc1 | inactive |  |
| O=C(CCCCCn1c(=S)[nH]c2cc3c(cc2c1=O)OCO3)N1CCN(c2ccc(F)cc2)CC1 | inactive |  |
| COc1cccc(CN(C)CC(O)COc2cc(Cl)ccc2Cl)c1 (configuration not stated) | inactive |  |
| O=C(NC1CC2CCC(C1)N2Cc1ccccc1)c1ccccc1Br (configuration not stated) | inactive |  |

| SMILES | activity change, negative = inhibition (at 26 µM (top of the series)) | other results |
| --- | --- | --- |
| CCOC(=O)c1c(C)c(C(=O)NCc2ccc(OC)cc2)c(C)n1C | inactive |  |
| CN(CC(=O)Nc1ccccc1Cl)C(=O)COC(=O)c1cccs1 | inactive |  |
| C=CCNc1nc(Nc2cc(Cl)ccc2OC)nc(OC)n1 | inactive |  |
| Cc1cccc(N2CCN(C(=O)CCCn3c(=S)[nH]c4cc5c(cc4c3=O)OCO5)CC2)c1C | inactive |  |
| C[C@H](CO)N1C[C@H](C)[C@@H](CN(C)C(=O)c2ccncc2)OCc2cnnn2CCCC1=O | inactive |  |
| CC1CCN(C(=O)Cn2cc(C(F)(F)F)ccc2=O)c2ccccc2S1 (configuration not stated) | inactive |  |
| COc1ccc(N2CCN(C(=O)CCCCCn3c(=S)[nH]c4cc5c(cc4c3=O)OCO5)CC2)cc1 | inactive |  |
| COc1ccc(OC)c(N(CC(=O)Nc2ccccc2)S(C)(=O)=O)c1 | inactive |  |
| CO[C@H]1CN(C)C(=O)c2ccc(NC(=O)C3CC3)cc2OC[C@@H](C)N(Cc2ccccc2)C[C@H]1C | inactive |  |
| CSCCC(NS(=O)(=O)c1ccccc1F)C(=O)NCC(C)(C)N1CCOCC1 (configuration not stated) | inactive |  |
| CO[C@H]1CN(C)C(=O)c2ccc(NC(C)=O)cc2OC[C@H](C)N(C(=O)CC2CC2)C[C@H]1C | inactive |  |
| CO[C@@H]1CN(C)C(=O)c2ccc(NC(=O)c3ccccc3)cc2OC[C@@H](C)N(C(=O)C2CC2)C[C@@H]1C | inactive |  |
| Cc1cccc(C(=O)Nc2cccc(NC(=O)c3ccccc3)c2)c1 | inactive |  |
| CN1C(=O)CC(Sc2ccccc2C(=O)O)C1=O (configuration not stated) | inactive |  |
| Cc1ccc(NS(=O)(=O)c2ccc(Br)s2)nc1 | inactive |  |
| CCCNC(=O)[C@@H]1[C@@H](CO)[C@@H]2Cn3c(ccc(-c4ccccc4)c3=O)[C@@H]2N1CC1CC1 | inactive |  |
| C[C@@H]1CN([C@@H](C)CO)C(=O)Cc2cc(N(C)C)ccc2O[C@@H]1CN(C)Cc1ccccc1 | inactive |  |
| CS(=O)(=O)c1ccc(Nc2nc(C(N)COCc3ccccc3)cs2)cc1 (configuration not stated) | inactive |  |
| CC(OC(=O)c1n[nH]c2ccccc12)C(=O)Nc1ccccc1[N+](=O)[O-] (configuration not stated) | inactive |  |
| CCCC(=O)Nc1ccc2c(c1)OC[C@@H](C)N(Cc1ccc(F)cc1)C[C@@H](C)[C@@H](OC)CN(C)C2=O | inactive |  |
| O=C(CCCCCn1c(=S)[nH]c2cc3c(cc2c1=O)OCO3)N1CCN(C2CCCCC2)CC1 | inactive |  |

| SMILES | activity change, negative = inhibition (at 26 µM (top of the series)) | other results |
| --- | --- | --- |
| CCN=c1sc(C(=O)Nc2ccccc2)c(C)n1CC | inactive |  |
| O=C(N/N=C\c1ccc([N+](=O)[O-])o1)c1cncc(Br)c1 | inactive |  |
| CC(C)NC(=O)N1[C@H](CO)[C@@H](c2ccccc2)C12CN(C(=O)Cc1cccnc1)C2 | inactive |  |
| Nc1ccc(Sc2ccccc2Cl)nc1 | inactive |  |
| O=C(NCCc1ccccc1)c1cccc2c(-c3ccc(F)c(F)c3)coc12 | inactive |  |
| CC(=O)N1CCc2c(sc(NC(=O)Cc3ccccc3)c2C(N)=O)C1 | inactive |  |
| O=C(CCCn1c(=S)[nH]c2cc3c(cc2c1=O)OCO3)N1CCN(c2ccccc2F)CC1 | inactive |  |
| COc1cccc(C(=O)N2CCN(Cc3ccc(OC)cc3OC)CC2)c1 | inactive |  |
| CCCN1C[C@@H](C)[C@H](OC)CN(C)C(=O)c2ccc(NC(=O)c3ccccc3)cc2OC[C@@H]1C | inactive |  |
| O=C(COC(=O)c1ccc([N+](=O)[O-])s1)NC(=O)NCc1ccccc1 | inactive |  |
| CC(C)CN1CCC(CN2CCNC(=O)C2=O)CC1 | inactive |  |
| O=C(NC[C@@H]1CC[C@@H]2[C@@H](CN2S(=O)(=O)c2ccccc2[N+](=O)[O-])O1)C1CCOCC1 |  | activity change, negative = inhibition (at 8 µM (top of the series)): inactive |
| Cc1cc(NC(=O)C23CC4CC(C2)CC(n2cnc([N+](=O)[O-])n2)(C4)C3)no1 | inactive |  |
| CCOc1ncccc1C(=O)OC(C)C(=O)Nc1ccc(N2CCOCC2)cc1 (configuration not stated) | inactive |  |
| COc1ccc2c(C#N)c3ccccn3c2c1 | inactive |  |
| CO[C@@H]1CN(C)C(=O)c2ccc(NC(=O)C3CC3)cc2OC[C@@H](C)N(Cc2ccccc2)C[C@H]1C | inactive |  |
| NC[C@H](O)c1ccc(O)c(O)c1 | inactive |  |
| CO[C@H]1CN(C)C(=O)c2ccc(NC(=O)c3ccccc3)cc2OC[C@@H](C)N(C(=O)C2CC2)C[C@H]1C |  | activity change, negative = inhibition (at 23.5 µM (top of the series)): inactive |
| O=C(CCCn1c(=S)[nH]c2cc3c(cc2c1=O)OCO3)N1CCN(c2ccc(F)cc2)CC1 | inactive |  |
| Cc1cccc(C)c1OCc1nc2ccccc2[nH]1 | inactive |  |
